Experimental findings from ChEMBL document CHEMBL1143458, “An efficient synthesis of argifin: a natural product chitinase inhibitor with chemotherapeutic potential” (Bioorg Med Chem Lett, 2005) are described below.

One series deals with Endochitinase B1 (Aspergillus fumigatus, UniProt Q873X9). In words: Inhibitory activity against Chitinase B1 (AfChiB1) using fuorometric assay with 4-methylumbelliferyl-b-D-N,N0-diacetylchitobiose as substrate.
The nature of series [1]: Maximum rate of metabolism of compound. It is filed as ADME. Conditions: aspergillus fumigatus.
Series [2] relates to CNC(=O)NC(=N)NCCC[C@@H]1NC(=O)[C@@H](C)NC(=O)C[C@@H](C(=O)O)NC(=O)C[C@@H](C(=O)O)NC(=O)[C@H](Cc2ccccc2)N(C)C1=O. The series is described as follows: Michaelis constant for compound binding to Chitinase B1. Conditions: Aspergillus fumigatus.

What is called Ki is a measure of affinity in units of concentration, obtained from inhibition or displacement. One may read the Vmax as the rate approached at saturating substrate. At Endochitinase B1, `CNC(=O)NC(=N)NCCC[C@@H]1NC(=O)[C@@H](C)NC(=O)C[C@@H](C(=O)O)NC(=O)C[C@@H](C(=O)O)NC(=O)[C@H](Cc2ccccc2)N(C)C1=O` [ARGIFIN] showed an inhibition constant Ki of 0.017 µM. Also, the Vmax in series [1] stood at 2.7 nM/s.
Usually Km stands for the substrate concentration at which the rate is half of its maximum. With “Endochitinase B1 (Aspergillus fumigatus) (from UniProt Q873X9)”, in series [2], the Km was 10.4 µM.
